{
  "source": "paper PMC4263960",
  "about": "(Pediatric blood & cancer, 2013)",
  "key": {"[1]": {"system": "KT-16 rhabdoid xenograft", "assay": "PPTP in vivo xenograft testing, KT-16", "set-up": "species or system mice"}, "[2]": {"system": "SK-NEP-1 Ewing xenograft", "assay": "PPTP in vivo xenograft testing, SK-NEP-1", "set-up": "species or system mice"}, "[3]": {"system": "EW8 Ewing xenograft", "assay": "PPTP in vivo xenograft testing, EW8", "set-up": "species or system mice"}, "[4]": {"system": "TC-71 Ewing xenograft", "assay": "PPTP in vivo xenograft testing, TC-71", "set-up": "species or system mice"}, "[5]": {"system": "Rh41 ALV rhabdomyosarcoma xenograft", "assay": "PPTP in vivo xenograft testing, Rh41", "set-up": "species or system mice"}, "[6]": {"system": "BT-50 medulloblastoma xenograft", "assay": "PPTP in vivo xenograft testing, BT-50", "set-up": "species or system mice"}, "[7]": {"system": "BT-39 glioblastoma xenograft", "assay": "PPTP in vivo xenograft testing, BT-39", "set-up": "species or system mice"}, "[8]": {"system": "NB-1691 neuroblastoma xenograft", "assay": "PPTP in vivo xenograft testing, NB-1691", "set-up": "species or system mice"}, "[9]": {"system": "CHLA-79 neuroblastoma xenograft", "assay": "PPTP in vivo xenograft testing, CHLA-79", "set-up": "species or system mice"}, "[10]": {"system": "OS-1 osteosarcoma xenograft", "assay": "PPTP in vivo xenograft testing, OS-1", "set-up": "species or system mice"}, "[11]": {"assay": "Tolerability in xenograft-bearing mice", "assay_type": "in vivo"}, "[12]": {"details": "1 mg/kg IP Q4Dx3 repeated at Day 21"}},
  "data": [
    {"smiles": "C=C1C[C@@H]2CC[C@@]34C[C@H]5O[C@H]6[C@@H](O3)[C@H]3O[C@H](CC[C@@H]3O[C@H]6[C@H]5O4)CC(=O)C[C@@H]3[C@@H](OC)[C@@H](C[C@H](O)CN)O[C@H]3C[C@H]3O[C@@H](CC[C@@H]1O2)C[C@@H](C)C3=C", "note": "[Eribulin]", "values": [
      {"measurement": "EFS T/C", "setting": "[1]; [12]", "value": 1.1},
      {"measurement": "Median final RTV (CD45%)", "setting": "[1]; [12]", "value": ">4"},
      {"measurement": "Time to event", "setting": "[1]; [12]", "value": 12.1},
      {"measurement": "Tumor volume T/C", "setting": "[1]; 1 mg/kg IP, Day 21 or earlier", "value": 0.76},
      {"measurement": "EFS activity", "setting": "[2]; 1 mg/kg IP", "value": "High (High activity requires: (a) an EFS T/C >2; (b) a significant difference in EFS distributions, and (c) a net reduction in median tumor volume for animals in the treated group at the end of treatment as compared to at treatment initiation)"},
      {"measurement": "Response activity", "setting": "[2]; 1 mg/kg IP", "value": "High (A high level of activity is indicated by a score of 6 or more)"},
      {"measurement": "T/C volume activity", "setting": "[2]; 1 mg/kg IP", "value": "High (High activity = T/C ≤0.15)"},
      {"measurement": "EFS T/C", "setting": "[2]; [12]", "value": ">4.3"},
      {"measurement": "Median final RTV (CD45%)", "setting": "[2]; [12]", "value": 0.0},
      {"measurement": "Tumor volume T/C", "setting": "[2]; 1 mg/kg IP, Day 21 or earlier", "value": 0.00},
      {"measurement": "EFS activity", "setting": "[3]; 1 mg/kg IP", "value": "High (High activity requires: (a) an EFS T/C >2; (b) a significant difference in EFS distributions, and (c) a net reduction in median tumor volume for animals in the treated group at the end of treatment as compared to at treatment initiation)"},
      {"measurement": "Response activity", "setting": "[3]; 1 mg/kg IP", "value": "High (A high level of activity is indicated by a score of 6 or more)"},
      {"measurement": "T/C volume activity", "setting": "[3]; 1 mg/kg IP", "value": "High (High activity = T/C ≤0.15)"},
      {"measurement": "EFS T/C", "setting": "[3]; [12]", "value": ">3.1"},
      {"measurement": "Median final RTV (CD45%)", "setting": "[3]; [12]", "value": 0.0},
      {"measurement": "Tumor volume T/C", "setting": "[3]; 1 mg/kg IP, Day 21 or earlier", "value": 0.00},
      {"measurement": "Response activity", "setting": "[4]; 1 mg/kg IP", "value": "High (A high level of activity is indicated by a score of 6 or more)"},
      {"measurement": "T/C volume activity", "setting": "[4]; 1 mg/kg IP", "value": "Int (Intermediate activity = T/C ≤0.45 but >0.15)"},
      {"measurement": "EFS T/C", "setting": "[4]; [12]", "value": ">1.5"},
      {"measurement": "Median final RTV (CD45%)", "setting": "[4]; [12]", "value": 2.3},
      {"measurement": "Tumor volume T/C", "setting": "[4]; 1 mg/kg IP, Day 21 or earlier", "value": 0.19},
      {"measurement": "EFS activity", "setting": "[5]; 1 mg/kg IP", "value": "High (High activity requires: (a) an EFS T/C >2; (b) a significant difference in EFS distributions, and (c) a net reduction in median tumor volume for animals in the treated group at the end of treatment as compared to at treatment initiation)"},
      {"measurement": "Response activity", "setting": "[5]; 1 mg/kg IP", "value": "High (A high level of activity is indicated by a score of 6 or more)"},
      {"measurement": "T/C volume activity", "setting": "[5]; 1 mg/kg IP", "value": "High (High activity = T/C ≤0.15)"},
      {"measurement": "EFS T/C", "setting": "[5]; [12]", "value": ">3.0"},
      {"measurement": "Median final RTV (CD45%)", "setting": "[5]; [12]", "value": 0.0},
      {"measurement": "Tumor volume T/C", "setting": "[5]; 1 mg/kg IP, Day 21 or earlier", "value": 0.07},
      {"measurement": "Response activity", "setting": "[6]; 1 mg/kg IP", "value": "Low (low activity by a score of <2)"},
      {"measurement": "T/C volume activity", "setting": "[6]; 1 mg/kg IP", "value": "Low (Low activity = T/C >0.45)"},
      {"measurement": "EFS T/C", "setting": "[6]; [12]", "value": ">1.1"},
      {"measurement": "Median final RTV (CD45%)", "setting": "[6]; [12]", "value": ">4"},
      {"measurement": "Tumor volume T/C", "setting": "[6]; 1 mg/kg IP, Day 21 or earlier", "value": 0.78},
      {"measurement": "EFS activity", "setting": "[7]; 1 mg/kg IP", "value": "High (High activity requires: (a) an EFS T/C >2; (b) a significant difference in EFS distributions, and (c) a net reduction in median tumor volume for animals in the treated group at the end of treatment as compared to at treatment initiation)"},
      {"measurement": "Response activity", "setting": "[7]; 1 mg/kg IP", "value": "Int (intermediate activity by a score of ≥2 but <6)"},
      {"measurement": "T/C volume activity", "setting": "[7]; 1 mg/kg IP", "value": "Low (Low activity = T/C >0.45)"},
      {"measurement": "EFS T/C", "setting": "[7]; [12]", "value": ">3.6"},
      {"measurement": "Median final RTV (CD45%)", "setting": "[7]; [12]", "value": 0.5},
      {"measurement": "Tumor volume T/C", "setting": "[7]; 1 mg/kg IP, Day 21 or earlier", "value": 1.00},
      {"measurement": "EFS activity", "setting": "[8]; 1 mg/kg IP", "value": "Low (Low activity = EFS T/C <2)"},
      {"measurement": "Response activity", "setting": "[8]; 1 mg/kg IP", "value": "Low (low activity by a score of <2)"},
      {"measurement": "T/C volume activity", "setting": "[8]; 1 mg/kg IP", "value": "Low (Low activity = T/C >0.45)"},
      {"measurement": "EFS T/C", "setting": "[8]; [12]", "value": 1.1},
      {"measurement": "Median final RTV (CD45%)", "setting": "[8]; [12]", "value": ">4"},
      {"measurement": "Time to event", "setting": "[8]; [12]", "value": 7.9},
      {"measurement": "Tumor volume T/C", "setting": "[8]; 1 mg/kg IP, Day 21 or earlier", "value": 0.80},
      {"measurement": "EFS activity", "setting": "[9]; 1 mg/kg IP", "value": "Low (Low activity = EFS T/C <2)"},
      {"measurement": "Response activity", "setting": "[9]; 1 mg/kg IP", "value": "Int (intermediate activity by a score of ≥2 but <6)"},
      {"measurement": "T/C volume activity", "setting": "[9]; 1 mg/kg IP", "value": "Low (Low activity = T/C >0.45)"},
      {"measurement": "EFS T/C", "setting": "[9]; [12]", "value": 1.9},
      {"measurement": "Median final RTV (CD45%)", "setting": "[9]; [12]", "value": ">4"},
      {"measurement": "Time to event", "setting": "[9]; [12]", "value": 13.0},
      {"measurement": "Tumor volume T/C", "setting": "[9]; 1 mg/kg IP, Day 21 or earlier", "value": 0.71},
      {"measurement": "Response activity", "setting": "[10]; 1 mg/kg IP", "value": "High (A high level of activity is indicated by a score of 6 or more)"},
      {"measurement": "T/C volume activity", "setting": "[10]; 1 mg/kg IP", "value": "Low (Low activity = T/C >0.45)"},
      {"measurement": "EFS T/C", "setting": "[10]; [12]", "value": ">1.5"},
      {"measurement": "Median final RTV (CD45%)", "setting": "[10]; [12]", "value": 0.4},
      {"measurement": "Tumor volume T/C", "setting": "[10]; 1 mg/kg IP, Day 21 or earlier", "value": 0.64},
      {"measurement": "toxicity rate in the treated groups", "setting": "[11]; 6 of 409 treated mice, control 1 of 401", "value": 1.5, "unit": "%"},
      {"measurement": "MTD at 6 weeks", "setting": "[11]; NOD-SCID, mouse, in vivo, ip", "value": 1.5, "unit": "mg/kg"}
    ]}
  ]
}
